Source: patent US9308187B2, “Adhesive patch comprising diclofenac sodium” (HISAMITSU PHARMACEUTICAL CO., INC., priority 2012, dated 2016)
Read-outs that look alike come from different tables or passages of the source.

Assay: Solubilities in a variety of solubilizers
Type: physicochemical
Conditions: organic solvent or mixture
Description: Thus, in order to search for components which suppress the time-dependent crystallization of diclofenac and diclofenac sodium and which can comprise diclofenac sodium in the adhesive layer at a high concentration (3% by mass or greater) of diclofenac, the solubilities of diclofenac and diclofenac sodium were measured in a variety of solubilizers.

solubility (N-methylpyrrolidone (NMP), solvent N-methylpyrrolidone, read-out: solubility in N-methylpyrrolidone (NMP)): ≥ 100 mg/mL | solubility (dimethyl sulfoxide (DMSO), solvent dimethyl sulfoxide, read-out: solubility in dimethyl sulfoxide (DMSO)): ≥ 100 mg/mL | solubility (dipropylene glycol (DPG), solvent dipropylene glycol, read-out: solubility in dipropylene glycol (DPG)): ≥ 100 mg/mL | solubility (polyethylene glycol (PEG-400), solvent polyethylene glycol, read-out: solubility in polyethylene glycol (PEG-400)): ≥ 100 mg/mL
Structure (SMILES): O=C(O)Cc1ccccc1Nc1c(Cl)cccc1Cl [diclofenac]
